Source: patent US20200054651A1, “COMPOSITIONS AND METHODS FOR MODULATING PPP2R1A” (The Regents of the University of California, priority 2017, published 2020)

How the values were obtained:
[1] = tested on: MCF 10A non-transformed mammary epithelial cells; test: MCF 10A cell proliferation (toxicity to non-transformed cells); format: cell-based; conditions: 48 h after treatment, Hoescht staining
[2] = In vivo tolerability during xenograft treatment; conditions: daily treatment for >30 days, 50 mg/kg ip
MCF7 cells = test: MCF7 cell proliferation; format: cell-based; conditions: 10 μM, 48 h
C328 on vimentin = target: T1, C328 on vimentin (Homo sapiens, UniProt P08670); test: Competitive isoTOP-ABPP in 231MFP proteomes in vitro; format: binding; conditions: 10 μM, in vitro treatment of 231MFP proteomes
T1 construct: in vitro treatment of 231MFP breast cancer cell proteomes with withaferin A; endogenous in cells; host or cells: 231MFP breast cancer cells
T1 sequence (P08670 whole entry): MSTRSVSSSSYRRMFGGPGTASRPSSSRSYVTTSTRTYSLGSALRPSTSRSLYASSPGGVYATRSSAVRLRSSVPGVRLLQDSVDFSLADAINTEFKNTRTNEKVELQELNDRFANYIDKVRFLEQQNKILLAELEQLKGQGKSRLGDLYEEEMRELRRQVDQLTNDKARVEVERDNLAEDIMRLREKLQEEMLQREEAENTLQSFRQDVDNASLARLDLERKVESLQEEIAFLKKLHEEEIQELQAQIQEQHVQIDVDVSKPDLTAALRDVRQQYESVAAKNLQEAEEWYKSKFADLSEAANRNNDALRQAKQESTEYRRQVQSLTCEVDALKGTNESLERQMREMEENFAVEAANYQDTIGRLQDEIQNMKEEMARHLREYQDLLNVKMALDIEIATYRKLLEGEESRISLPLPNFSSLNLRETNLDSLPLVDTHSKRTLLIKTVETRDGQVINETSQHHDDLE
Procedure: IsoTOP-ABPP studies were performed using the methods described in “Nature 534(7608), 570-574 (2016)” by Backus K. M., et al. and “Nature 468(7325), 790-795 (2010)” by Weerapana E., et al. Proteome samples diluted in PBS were treated with Withaferin A or vehicle for 30 minutes at 37° C. Then, IAyne (iodoacetamide-alkyne) labeling was performed for 1 hour at room temperature. CuAAC was used by sequential addition of tris(2-carboxyethyl)phosphine (1 mM), tris[(1-benzyl-1H-1,2,3-triazol-4-yl)methyl]amine (34 μM), copper (II) sulfate (1 mM), and biotin-linker-azide where the linker was functionalized with a TEV protease recognition sequence along with an isotopically light or heavy valine for treatment of control or treated proteome, respectively. After click reactions, proteomes were precipitated by centrifugation at 6500×g, washed in ice-cold methanol, combined in a 1:1 control/treated ratio, washed again, then denatured and re-solubilized by heating in 1.2% SDS/PBS to 80° C. for 5 minutes. Insoluble components were precipitated by centrifugation at 6500×g and soluble proteome was diluted in 0.2% SDS/PBS (5 ml). Labeled proteins were bound to avidin-agarose beads (170 μl re-suspended beads/sample) while rotating overnight at 4° C. Bead-linked proteins were enriched by washing three times each in PBS and water, then re-suspended in urea/PBS (6 M), reduced in TCEP (1 mM), alkylated with iodoacetamide (18 mM), then washed and re-suspended in urea/PBS (2 M), and finally trypsinized overnight with 0.5 μg/μl sequencing grade trypsin. Tryptic peptides were eluted off. Beads were washed in PBS (3 times) and water (3 times), washed in TEV buffer solution (water, TEV buffer, 100 μM dithiothreitol), and re-suspended in buffer with Ac-TEV protease and then incubated overnight. Peptides were diluted in water, acidified with formic acid (1.2 M), and prepared for analysis.
Peptides from all proteomic experiments were pressure-loaded onto an Agilent 600 series RP-HPLC system equipped with a capillary tubing (250 mm) packed with Aqua C18 reverse-phase resin (4 cm). The system was previously equilibrated with a gradient (0% B to 100% B over 10 minutes, 100% B for 5 minutes, then 0% B for 5 minutes; buffer A: 95:5 water:acetonitrile, 0.1% formic acid; buffer B: 80:20 acetonitrile:water, 0.1% formic acid). The samples were then attached using a MicroTee PEEK 360 μm fitting to a laser pulled column (13 cm) packed with Aqua C18 reverse-phase resin (10 cm) and strong-cation exchange resin (3 cm) for isoTOP-ABPP studies. Samples were analyzed using an Q Exactive Plus mass spectrometer using a 5-step Multidimensional Protein Identification Technology (MudPIT) program. […]

pure human KEAP1 = target: T2, pure human KEAP1 (Homo sapiens, UniProt Q14145); test: Gel-based ABPP, competition against IAyne labeling; format: binding; conditions: 10 μM, 30 min at 37° C.
T2 construct: purchased Origene
T2 sequence (Q14145 whole entry): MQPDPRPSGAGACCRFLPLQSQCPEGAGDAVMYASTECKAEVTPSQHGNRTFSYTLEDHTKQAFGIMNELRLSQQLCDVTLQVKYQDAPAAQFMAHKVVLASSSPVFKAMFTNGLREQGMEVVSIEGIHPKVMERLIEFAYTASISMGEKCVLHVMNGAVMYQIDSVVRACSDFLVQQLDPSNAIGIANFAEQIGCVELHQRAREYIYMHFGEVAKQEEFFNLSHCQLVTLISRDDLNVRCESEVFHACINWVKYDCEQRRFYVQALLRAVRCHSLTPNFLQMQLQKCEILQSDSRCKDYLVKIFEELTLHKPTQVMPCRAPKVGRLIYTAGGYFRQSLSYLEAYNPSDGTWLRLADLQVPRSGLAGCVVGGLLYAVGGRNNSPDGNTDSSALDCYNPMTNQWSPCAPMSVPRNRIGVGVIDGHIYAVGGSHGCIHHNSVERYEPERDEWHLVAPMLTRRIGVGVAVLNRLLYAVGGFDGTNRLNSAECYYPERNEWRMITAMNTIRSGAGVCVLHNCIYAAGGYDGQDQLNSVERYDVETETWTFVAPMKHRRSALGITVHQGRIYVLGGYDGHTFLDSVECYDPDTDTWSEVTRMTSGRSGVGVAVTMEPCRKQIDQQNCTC
Procedure: (§1) Gel-based ABPP methods were performed using the methods described in “Chem Biol 22(10), 1394-1405 (2015)” by Medina-Cleghorn D., et al. Recombinant pure human proteins were purchased from Origene. Pure proteins were pre-treated with DMSO, Withaferin A, or acrylamide or chloroacetamide compounds (e.g., DKM 2-90 or JNS 1-40) for 30 minutes at 37° C. in an incubation volume of PBS (50 μL), and were subsequently treated with IAyne (10 μM final concentration) for 30 minutes at room temperature. CuAAC was performed to append rhodamine-azide onto IAyne probe-labeled proteins. The samples were separated by SDS/PAGE and scanned using a ChemiDoc MP. Inhibition of target labeling was assessed by densitometry using ImageStudio Light software.

pure human vimentin = target: T3, pure human vimentin (Homo sapiens, UniProt P08670); test: Gel-based ABPP, competition against IAyne labeling; format: binding; conditions: 10 μM, 30 min at 37° C.
T3 construct: purchased Origene
T3 sequence (P08670 whole entry): as the sequence (P08670 whole entry) above
Procedure: as §1

SMILES: O=C(CCl)Nc1ccc2c(c1)OCCO2 [DKM 2-90, 2-Chloro-N-(2,3-dihydrobenzo[β][1,4]dioxin-6-yl)acetamide]
- toxicity to MCF 10A cells (cell proliferation) [1]: less toxic than DKM 2-91

SMILES: O=C(CCl)N(Cc1ccccc1)c1ccc2c(c1)OCCO2 [JNS 1-40, N-benzyl-2-chloro-N-(2,3-dihydrobenzo[b][1,4]dioxin-6-yl)acetamide]
- overt toxicity or body weight loss [2]: did not cause any overt toxicity or body weight loss

SMILES: CC1=C(CO)C(=O)O[C@@H]([C@@H](C)[C@H]2CC[C@H]3[C@@H]4C[C@H]5O[C@]56[C@@H](O)C=CC(=O)[C@]6(C)[C@H]4CC[C@]23C)C1 [withaferin A, reference compound]
- cell proliferation (MCF7 cells): impairs
- light to heavy ratio, C328 on vimentin (C328 on vimentin): 1.0
- competition against IAyne labeling of pure human KEAP1 (pure human KEAP1): no competition
- competition against IAyne labeling of pure human vimentin (pure human vimentin): lack of competition
